PMC8591608, “DNDI-6148: A Novel Benzoxaborole Preclinical Candidate for the Treatment of Visceral Leishmaniasis” (Journal of Medicinal Chemistry, 2021)

Columns and labels:
L. infantum [1] = assay: Intramacrophage L. infantum assay; assay type: cell-based; details: Leishmania infantum; Table 2; geometric mean of at least three independent assays; read-out: intramacrophage L. infantum EC50
Description: (§1) L. infantum (MHOM/MA/67/ITMAP263) and L. donovani (MHOM/ET/67/L82) were maintained in the golden (Syrian) hamster (Mesocricetus auratus). Ex vivo amastigotes were collected from the spleen of an infected donor hamster using two centrifugation purification steps: 230g for 10 min, keeping the supernatant layer, and 4100g for 30 min, keeping the pellet. The spleen parasite burden was assessed using the Stauber technique.[25] For in vitro assays, the inoculum was prepared in RPMI-1640 medium, supplemented with 200 mM L-glutamine, 16.5 mM NaHCO3, and 5% inactivated fetal calf serum. For the in vivo model, an infection inoculum containing 2 × 10^7 amastigotes/100 μL was prepared in phosphate-buffered saline (PBS).
(§2) The assay was performed in sterile 96-well microtiter plates, each well containing 10 μL of the compound dilution and 190 μL of the PMM/amastigote inoculum (3 × 10^4 cells/4.5 × 10^5 parasites per well). Parasite multiplication was compared to untreated infected controls (100% growth) and uninfected controls (0% growth). After five-day incubation, total parasite burdens were microscopically assessed after staining the cells with a 10% Giemsa solution. The results were expressed as a percentage reduction in parasite burden compared to untreated control wells. EC50 values were determined using an extended dose range (2-fold compound dilutions, 8-point concentration curve). Miltefosine was used as the reference drug.[26] For selected compounds, this assay format was also run using the L. donovani inoculum.

[2] = test system: CPSF3-overexpressing L. donovani promastigotes; assay: Drug sensitivity, CPSF3-overexpressing L. donovani promastigotes; assay type: cell-based; details: Leishmania donovani
Description: (§3) The clonal L. donovani cell line LdBOB (derived from MHOM/SD/62/1S-CL2D) was grown as promastigotes at 28 °C, as described previously. Bloodstream form T. brucei MiTat 1.2 clone 221a and its derived subline, 2T1, were cultured at 37 °C in the presence of 5% CO2 in HMI9-T medium, as described previously. T. brucei cell lines overexpressing CPSF3 and overexpressing a mutated version of CPSF3 (Asn232His) were generated as part of a previous study and cultured as described.[19]
(§4) L. donovaniCPSF3 gene (LdBPK_343210.1) was custom synthesized by GeneArt and ligated into the pIR1SAT vector via BglII restriction sites. Using the Q5 mutagenesis kit (NEB) and the pIR1SAT-LdCPSF3^WT construct as a template, mutations encoding A655C and Asn219His change to CPSF3^WT were introduced. Mutations were introduced using the specific primers 5′-GAGTACACGGCATCCGC-3′ and 5′-[…]-3′ and as per manufacturers’ instructions. Wild-type and mutated pIR1SAT constructs were digested with SwaI and transfected into L. donovani promastigotes, as previously described. Resistant clones were selected with nourseothricin (100 μg/mL), and two clones per transfection were selected for further study.
(§5) Drug sensitivity assays with wild-type and transgenic T. brucei and L. donovani cell lines were carried out as previously described.[31],[32]

Trypanosoma brucei = test system: Trypanosoma brucei; parameters: method as in PMID 21738803; details: in vitro; read-out: EC50 against Trypanosoma brucei; cited from earlier work
[3] = test system: wild-type L. donovani promastigotes; assay: Drug sensitivity, wild-type L. donovani promastigotes; assay type: cell-based; details: Leishmania donovani
Description: as §3, §5

L. donovani = assay: Intramacrophage L. donovani assay; assay type: cell-based; details: Leishmania donovani; Table 2; geometric mean of at least three independent assays
Description: as §1, §2

[4] = test system: CPSF3 (Asn219His)-overexpressing L. donovani promastigotes; assay: Drug sensitivity, CPSF3 (Asn219His)-overexpressing L. donovani promastigotes; assay type: cell-based; details: for EC50: Leishmania donovani
Description: as §3, §4, §5

PMM cytotoxicity assay = assay type: cell-based; details: mouse, primary peritoneal mouse macrophages (PMM); for EC50 at 3 days: Table 2, geometric mean of at least three independent assays
Description: (§6) Primary peritoneal mouse macrophages (PMM) were collected two days after peritoneal stimulation with a 2% potato starch suspension. MRC5SV2 cells (diploid human embryonic lung fibroblasts) were cultured in minimal essential medium (MEM) containing Earle’s salts, supplemented with L-glutamine, NaHCO3, and 5% inactivated fetal calf serum. All cultures and assays were conducted at 37 °C under an atmosphere of 5% CO2.
(§7) Assays were performed in sterile 96-well microtiter plates, each well containing 10 μL of the compound dilution and 190 μL of MRC5SV2 or PMM inoculum (3 × 10^4 cells/mL). Cell growth was compared to untreated controls (100% growth) and assay-media controls (0% growth). After three-day incubation, cell viability was assessed fluorometrically by adding resazurin (50 μL/well of a stock solution in phosphate buffer (50 μg/mL)), incubating for 4 h and measuring fluorescence (λex 550 nm, λem 590 nm). The results were expressed as a percentage reduction in cell growth compared to untreated control wells. […] Tamoxifen was included as the reference drug.

MRC5 cytotoxicity assay = assay type: cell-based; details: human, MRC5SV2 cells (human embryonic lung fibroblasts); Table 4; geometric mean of at least two independent tests
Description: as §6, §7

L. infantum [5] = assay: L. infantum hamster model of VL; assay type: in vivo
Description: as §1
Female golden hamsters for the in vivo model of visceral leishmaniasis were purchased from Janvier, France (body weight 80–100 g). This study using laboratory rodents was carried out in strict accordance with all mandatory guidelines (EU directives, including the Revised Directive 2010/63/EU on the protection of Animals used for Scientific Purposes that came into force on 01/01/2013, and the declaration of Helsinki in its latest version) and was approved by the ethical committee of the University of Antwerp, Belgium (UA-ECD 2011-74). Female golden hamsters for the pharmacokinetic study were purchased from Vital River, Beijing, China. This study was conducted following institutional review and in accordance with institutional and national guidelines at WuXi AppTec (the Institutional Animal Care and Use Committee (IACUC)). Balb/c mice for the in vivo model of visceral leishmaniasis (LSHTM) were purchased from Charles River, U.K., and related studies were conducted under license PPL 70/8427 from the U.K. Home Office.
Female golden hamsters were randomly allocated to experimental groups of six animals each, based on body weight. At the start of the experiment (Day 0), each animal was infected with L. infantum or L. donovani inoculum, delivered by intracardial injection. Six hamsters were assigned to the vehicle-treated, infected control group. Six hamsters were assigned per group (1 group/compound) for the evaluation of compound and miltefosine. […] At Day 35 (10 days after the final oral dose), all animals were euthanized and autopsies were conducted. The study evaluated the following parameters. • 1. Adverse effects: all animals were observed daily for the occurrence/presence of adverse effects. • 2. Body weight: all animals were weighed twice per week to monitor general health. • 3. Parasite burden: amastigote burdens in each target organ (liver, spleen, and bone marrow) were determined at Day 35. The organs of individual animals were weighed (except for bone marrow). Impression smears were stained with Giemsa for microscopic examination of the total amastigote burden, defined as the mean number of amastigotes per cell multiplied by the number of cells counted (minimum 500 nuclei); the results were expressed as a percentage reduction in amastigote burden compared to vehicle-treated, infected control animals.

[6] = Liver microsome stability, human; assay type: in vitro ADME; details: human liver microsomes, pH 7.4, Table 4, read-out: HLM Clint
Description: Tests were performed by WuXi AppTec, China. Test compounds (at 1 μM) or positive controls (testosterone, propafenone, and diclofenac) were incubated at 37 °C with liver microsomes from Balb/c mouse, golden (Syrian) hamster, Sprague-Dawley rat, Beagle dog, or human in the presence of a NADPH regenerating system and phosphate buffer (100 mM, pH 7.4) at 0.4 or 0.8 mg/mL microsomal protein. The samples were removed at time intervals from 0 to 60, 90, or 120 min and immediately mixed with cold methanol supplemented or not with acid (3% formic acid) and centrifuged prior to analysis by LC-MS/MS using tolbutamide or propranolol as internal standards.

## CC1(C)OB(O)c2cc(NC(=O)c3ccc(F)cc3C(F)(F)F)ccc21 [Compound 1, acoziborole, reference compound]
L. infantum [1]
  EC50: > 64 µM
[2]
  EC50: 2.8 ± 0.1 µM
Trypanosoma brucei
  EC50: 0.795 µM
[3]
  EC50: 2.5 ± 0.1 µM
L. donovani
  EC50: 59 µM
[4]
  EC50: 11.7 ± 0.4 µM
[4]; promastigotes overexpressing mutated CPSF3
  fold reduction in susceptibility: 5 fold
PMM cytotoxicity assay
  EC50 at 3 days: > 64 µM
PMM cytotoxicity assay; supplement csv
  CC50 at 3 days: > 64 µM

## O=C(Nc1ccc2c(c1)B(O)OC2)c1ccc(F)cc1C(F)(F)F [Compound 3]
L. infantum [1]
  EC50: 2.7 µM
MRC5 cytotoxicity assay
  CC50 at 3 days: > 64 µM
L. infantum [5]; 25 mg/kg QD for 5 days
  reduction in parasite burden, bone marrow: 81.6%
  reduction in parasite burden, spleen: 81.8%
L. infantum [5]; 25 mg/kg QD for 5 days, vs vehicle-treated infected controls
  reduction in parasite burden, liver: 87.8%
L. infantum [5]; 50 mg/kg QD for 5 days
  reduction in parasite burden, bone marrow: 91.2%
  reduction in parasite burden, liver: 97.4%
  reduction in parasite burden, spleen: 95.0%
L. infantum [5]; 100 mg/kg QD for 5 days
  reduction in parasite burden, bone marrow: 88.3%
  reduction in parasite burden, liver: 98.6%
  reduction in parasite burden, spleen: 96.0%
[2]
  EC50: 1.4 ± 0.03 µM
[3]
  EC50: 1.2 ± 0.02 µM
L. donovani
  EC50: 1.2 µM
[4]
  EC50: 4.4 ± 0.2 µM
[6]
  microsomal CLint at 2 h, 1 µM: 0.8 µL/min/mg
PMM cytotoxicity assay
  EC50 at 3 days: > 64 µM
PMM cytotoxicity assay; Table 4, geometric mean of at least two independent tests
  CC50 at 3 days: > 64 µM
